# Data taken from US20210113496A1, “Methods of Treating Excitotoxicity Disorders” (HORIZON ORPHAN LLC, priority 2018, published 2021).
# Columns and labels:
# [1] = tested on: ST HDH Q111/111 striatal cells; assay: Permeability/Cell Death assay based on CellTox Green (membrane integrity)
# Experimental: (§1) All cell culture methods were carried out under sterile conditions in a class II laminar flow cabinet. The immortalized cell lines, ST HDH Q111/111 and ST HDH Q7/7 were derived from striatal neurons from HdhQ111/Q111 and HdhQ7/Q7 mice (expressing 111 and 7 glutamine repeats, respectively) and were purchased from Coriell. Cells were cultured in Dulbecco's Modified Eagle Medium (DMEM) supplemented with 10% FBS, 4 mM L-alanyl-L-glutamine (Corning Glutagro), and 400 μg/mL G418. Cells were grown at 33° C. in a 5% CO2 incubator. All experiments used cells with passages lower than 14.
# (§2) Cells were plated at a density of 8×10^3 or 1.2×10^3 cells/well (CellTox or XTT, respectively) in sterile 96 well plates (100 uL). Cells were allowed to adhere overnight at 33° C. in a 5% CO2 incubator. Test compounds were applied and left to incubate for an additional 24 hours. Membrane integrity was assessed by staining with CellTox Green (Promega) reagent following manufacturer guidelines for the Endpoint (2×) Method. Viability was assessed using an XTT Cell Proliferation Kit (ATCC). Before adding XTT reagent, wells were aspirated and washed with serum free media. 50 uL of XTT reagent and 100 uL serum free media were then added to each well and incubated for 2-4 hours before acquiring data. […]
# [2] = tested on: HDH Q111/111 cells; assay: XTT Cell Proliferation assay (viability); settings: FIGS. 2A and 2B
# Experimental: as §1, §2
# [3] = tested on: striatal cells; assay: Live cell count after 24 or 48 hours of culture with glutamate (Cellometer); assay type: cell-based, mice; settings: cells cultured with glutamate, cysteamine administered 24 hours later; FIG. 3
# Experimental: All experiments used cells with passages lower than 14. Cells were seeded into sterile 12 well plates at an appropriate density (80-120 k cells/well) to reach 50-75% confluence after 24 hours. […] Thereafter, wells were treated with test compounds. Following incubation with the compounds for 24 or 48 hours, wells were rinsed with DPBS, and detached using 500 uL Accutase (EMD). Pellets were rinsed and re-suspended in 250 uL DPBS and live cells were counted on a Cellometer Auto 2000.
SMILES,"cytotoxicity (Cell Tox Green) ([1]; 5 mM glutamate given alone, 24 hours, FIG. 1A)","glutamate excitotoxicity (XTT Cell Proliferation) ([2]; glutamate in culture, HDH Q111/111 cells)","number of dead cells (CellTox Green) ([1]; HDH cells cultured with cysteamine and BSO, compared to BSO alone)","sensitivity of cells to toxicity induced by glutamate and/or the test agents ([1]; cysteamine in combination with GFPB (5 mM), and NMDA (500 uM)+4CPG (250 uM) or BSO (250 uM), FIG. 1B)",cell viability [3],rescue of glutamate-induced excitotoxicity (XTT Cell Proliferation) ([2]; cysteamine 25 μM in culture with glutamate),rescue of glutamate-induced excitotoxicity (XTT Cell Proliferation) ([2]; cysteamine 75 μM in culture with glutamate)
"N[C@@H](CCC(=O)O)C(=O)O [glutamate, L-Glutamic acid]",toxic to cells,experience glutamate excitotoxicity,,,,,
"NCCS [cysteamine, 2-aminoethanethiol]",,,reduced the number of dead cells,able to reduce sensitivity of cells to toxicity,positive effects of cysteamine on the cell viability was still observed,able to rescue glutamate-induced excitotoxicity,able to rescue glutamate-induced excitotoxicity
